The source of these data is patent US7355055B2, “Compounds for treatment of lipase-mediated diseases” (Reliance Life Sciences Pvt. Ltd., priority 2005, dated 2008).

Molecules are shown by their SMILES. Counter-ions that a name gives are not always drawn. Where only a bound is given, the exact number is not on record here.

One series addresses T1, Pancreatic Lipase (Sus scrofa, UniProt P00591).
T1 construct: purchased Sigma L-3126
T1 sequence (P00591 1-450): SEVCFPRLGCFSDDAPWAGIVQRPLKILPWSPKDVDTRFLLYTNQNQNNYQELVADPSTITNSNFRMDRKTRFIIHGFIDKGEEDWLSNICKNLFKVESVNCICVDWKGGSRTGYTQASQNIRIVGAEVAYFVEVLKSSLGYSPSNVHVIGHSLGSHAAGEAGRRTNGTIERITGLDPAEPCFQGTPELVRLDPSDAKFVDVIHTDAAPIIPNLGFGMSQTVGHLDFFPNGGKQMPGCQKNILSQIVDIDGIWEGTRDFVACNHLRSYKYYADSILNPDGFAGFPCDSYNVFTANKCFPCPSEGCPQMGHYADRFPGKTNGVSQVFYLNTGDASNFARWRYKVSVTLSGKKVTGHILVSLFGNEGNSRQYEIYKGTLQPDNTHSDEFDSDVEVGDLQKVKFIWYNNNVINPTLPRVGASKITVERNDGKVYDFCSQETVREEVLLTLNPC
The experiment in a line: Pancreatic lipase inhibition assay (p-nitro phenol palmitate substrate, 96-well). The class given is biochemical. Conditions: for IC50: dose range 6.25 μM-200 μM, interpolated by linear regression; for inhibition at 100 µM / inhibition at 200 µM: pancreatic lipase, 37° C., OD 405 nm; for inhibition at 100 µM: compound 100 μM; for inhibition at 200 µM: compound 200 μM. How it is done: Preparation of test samples: Structures #2-#19 were dissolved in 1 mL DMSO to obtain a 10 mM stock solution, and were vortexed to dissolution and stored at 4° C. The various concentration of working samples were prepared in 0.2 M phosphate buffer, pH-8.0. This sample was used as test sample for all further assays.
Lipase assay: Lipase assay was performed by method described by Winkler and Stuckmann, 1979, with modification. (Winkler, U. K. & Stuckmann, M. Glycogen, hyaluronate, and some other polysaccharides greatly enhance the formation of exolipase by Serratia marcescens. J. Bacteriol. 138: 663-670 (1979)) Assay was designed, using a 96-well format. The substrate used in this assay was p-nitro phenol palmitate (Sigma, Cat No-N-2752). 4.5 mg of p-nitro phenol palmitate was dissolved in 200 μl of N,N-dimethyl formamide (Sigma, Cat No, D-4551) and volume made up to 10 ml with 0.1 M pH 8.0 phosphate buffer. Pancreatic Lipase (Sigma, Cat No. L-3126) sample was prepared by dissolving the enzyme in 0.1M phosphate buffer at a concentration of 5 mg/ml. The reaction mixture consisted of 150 μl substrate solution; 40 μl phosphate buffer (pH 8.0, 0.2 M) and 10 μl lipase solution. The reaction mixture was incubated at 37° C. and optical density was measured at 405 nm after incubation. Enzyme activity was presented in the form of international unit (IU).
Lipase activity: One enzyme unit of lipase is defined as that quantity releasing 1 nm of free phenol from the substrate (p-nitro phenol palmitate) per min per ml under the standard assay condition (Winkler and Stuckmann, 1979; Yadav R P, Saxena R K, Gupta R. Davidson W S., Purification and characterization of a region-specific lipase from Aspergillus terreus. Biotechnol. Appl. Biochem. (1998) 28, (243-249)). It is derived from standard graph of p-nitro phenol (Sigma, 104-8).
Lipase inhibition assay: Enzyme inhibition assay was performed in a dose dependent manner. The concentration of the synthetic analogs checked were 100 μM & 200 μM. The assay was similar to assay described above except 40 μl of test sample was used instead of phosphate buffer in control. Optical density was measured at 0 hr and following incubation at 37° C.
Enzyme Inhibition: Enzyme inhibition was presented in the term of relative activity and percentage inhibition simply on the basis of change in international unit (IU).
Preparation of test samples: Synthetic analogues were dissolved in 1 ml DMSO to obtain a 10 mM stock solution. The samples were vortexed to dissolution and stored at 4° C. The various concentration of working samples were prepared in O.2 M phosphate buffer, pH-8.0. This sample was used as test sample for all further assays.
Lipase inhibition assay: Enzyme inhibition assay was performed in a dose dependent manner. The concentration of the synthetic analogs checked were 6.25 μM-200 μM. The assay was similar to assay described above except 40 μl of test sample was used instead of phosphate buffer in control. Optical density was measured at 0 hr and following incubation at 37° C. The enzyme activity was measured in terms of international unit (IU).
Lipase activity: One enzyme unit of lipase is defined as that quantity releasing 1 nm of free phenol from the substrate (p-nitro phenol palmitate)/min per ml under standard assay conditions. It is derived from standard graph of p-nitro phenol (Sigma, 104-8)
Percent Inhibition: Enzyme inhibition was presented in the term of % inhibition simply on the basis of change in international unit (IU).
The value of IC50 was derived from linear regression. The value derived is based on interpolated data.

A word on the melting point: it is the temperature, or range, at which the solid turns liquid. `CCCCCCCCCCCC1=C(OC(=O)c2cccc(Cl)c2)C(=O)C=C(OC(=O)c2cccc(Cl)c2)C1=O` (as salt: Na) [Structure #7, 2,5-bis-(3-chlorophenylcarbonyloxy)-3-undecyl-1,4-benzoquinone] yielded a melting point of 102.8 to 104.6 °C.
As to `CCCCCCCCCCCC1=C(OC(=O)c2ccccc2Cl)C(=O)C=C(OC(=O)c2ccccc2Cl)C1=O` (as salt: Na) [Structure #8, 2,5-bis-(2-chlorophenylcarbonyloxy)-3-undecyl-1,4-benzoquinone], the melting point is 56.2 to 57.8 °C.
Still for that read-out and setting: under `CCCCCCCCCCCC1=C(OC(=O)c2ccc(Cl)cc2)C(=O)C=C(OC(=O)c2ccc(Cl)cc2)C1=O` (as salt: Na) [Structure #9, 2,5-bis-(4-chlorophenylcarbonyloxy)-3-undecyl-1,4-benzoquinone] stands 110.2 to 112 °C; under `CCCCCCCCCCCC1=C(OC(=O)c2ccc(C)cc2)C(=O)C=C(OC(=O)c2ccc(C)cc2)C1=O` (as salt: Na) [Structure #12, 2,5-bis-(4-methylphenylcarbonyloxy)-3-undecyl-1,4-benzoquinone], 94.8 to 96 °C.
Still for that read-out and setting: for `CCCCCCCCCCCC1=C(OC(=O)c2cccc(C)c2)C(=O)C=C(OC(=O)c2cccc(C)c2)C1=O` (as salt: Na) [Structure #13, 2,5-bis-(3-methylphenylcarbonyloxy)-3-undecyl-1,4-benzoquinone] the value was 80.4 to 81.7 °C.
As a reminder, the IC50 is the concentration at which inhibition is half-maximal. Read a low IC50 as higher potency. As usually defined, the inhibition is the percentage by which the read-out fell short of the control. Lower therefore signals little suppression. `CCCCCCCCCCCC1=C(OC(=O)c2ccc(C(C)(C)C)cc2)C(=O)C=C(OC(=O)c2ccc(C(C)(C)C)cc2)C1=O` [Structure #3, 2,5-bis-(4-tert-butylphenylcarbonyloxy)-3-undecyl-1,4-benzoquinone]: on Pancreatic Lipase, the half-maximal inhibitory concentration (IC50) was below 6.25 µM, at 100 µM the inhibition was 99.5% and the inhibition at 200 µM was found to be 99.2%.
For `CCCCCCCCCCCC1=C(OC(=O)c2ccccc2Br)C(=O)C=C(OC(=O)c2ccccc2Br)C1=O` [Structure #5, 2,5-bis-(2-bromophenylcarbonyloxy)-3-undecyl-1,4-benzoquinone], in that order: 11 µM, 100% and 100%.
Regarding `CCCCCCCCCCCC1=C(OC(=O)c2cccc(Br)c2)C(=O)C=C(OC(=O)c2cccc(Br)c2)C1=O` [Structure #6, 2,5-bis-(3-bromophenylcarbonyloxy)-3-undecyl-1,4-benzoquinone], at Pancreatic Lipase, the IC50 was determined as 13.5 µM, the inhibition at 100 µM was 100% and testing at 200 µM gave an inhibition of 100%.
`CCCCCCCCCCCC1=C(OC(=O)c2cccc(Cl)c2)C(=O)C=C(OC(=O)c2cccc(Cl)c2)C1=O` [Structure #7, 2,5-bis-(3-chlorophenylcarbonyloxy)-3-undecyl-1,4-benzoquinone]: at Pancreatic Lipase, it took 16.7 µM to reach half-maximal inhibition (IC50), the inhibition at 100 µM is 100% and the inhibition at 200 µM worked out at 100%.
At Pancreatic Lipase, `CCCCCCCCCCCC1=C(OC(=O)c2ccccc2Cl)C(=O)C=C(OC(=O)c2ccccc2Cl)C1=O` [Structure #8, 2,5-bis-(2-chlorophenylcarbonyloxy)-3-undecyl-1,4-benzoquinone] showed an IC50 of 20.6 µM, an inhibition at 100 µM of 100% and an inhibition at 200 µM of 100%.
Take `CCCCCCCCCCCC1=C(OC(=O)c2ccc(Cl)cc2)C(=O)C=C(OC(=O)c2ccc(Cl)cc2)C1=O` [Structure #9, 2,5-bis-(4-chlorophenylcarbonyloxy)-3-undecyl-1,4-benzoquinone]: at Pancreatic Lipase, 22.8 µM corresponded to half-maximal inhibition (IC50), at 100 µM the inhibition was 98.4% and testing at 200 µM gave an inhibition of 100%.
For `CCCCCCCCCCCC1=C(OC(=O)c2ccc(Br)cc2)C(=O)C=C(OC(=O)c2ccc(Br)cc2)C1=O` [Structure #10, 2,5-bis-(4-bromophenylcarbonyloxy)-3-undecyl-1,4-benzoquinone], in that order: 23.7 µM, 87.5% and 97%.
For `CCCCCCCCCCCC1=C(OC(=O)c2ccc(C)cc2)C(=O)C=C(OC(=O)c2ccc(C)cc2)C1=O` [Structure #12, 2,5-bis-(4-methylphenylcarbonyloxy)-3-undecyl-1,4-benzoquinone], in that order: 41.3 µM, 88.5% and 99.1%.
For `CCCCCCCCCCCC1=C(OC(=O)c2cccc(C)c2)C(=O)C=C(OC(=O)c2cccc(C)c2)C1=O` [Structure #13, 2,5-bis-(3-methylphenylcarbonyloxy)-3-undecyl-1,4-benzoquinone], in that order: 44.7 µM, 100% and 100%.
`CCCCCCCCCCCC1=C(OC(=O)c2ccccc2[N+](=O)[O-])C(=O)C=C(OC(=O)c2ccccc2[N+](=O)[O-])C1=O` [Structure #14, 2,5-bis-(2-nitrophenylcarbonyloxy)-3-undecyl-1,4-benzoquinone]: at Pancreatic Lipase, the IC50 is 45.3 µM, testing at 100 µM gave an inhibition of 65.9% and the inhibition at 200 µM amounted to 61.3%.
On Pancreatic Lipase, `CCCCCCCCCCCC1=C(OC(=O)c2ccccc2)C(=O)C=C(OC(=O)c2ccccc2)C1=O` [Structure #15, 2,5-bis-(phenylcarbonyloxy)-3-undecyl-1,4-benzoquinone] returned a concentration for half-maximal inhibition (IC50) of 55.6 µM, an inhibition at 100 µM of 100% and an inhibition at 200 µM of 100%.
Consider `CCCCCCCCCCCC1=C(OC(=O)c2ccc(F)cc2)C(=O)C=C(OC(=O)c2ccc(F)cc2)C1=O` [Structure #16, 2,5-bis-(4-fluorophenylcarbonyloxy)-3-undecyl-1,4-benzoquinone], for which, at Pancreatic Lipase, the IC50 is 72.8 µM, the inhibition at 100 µM worked out at 89.5% and the inhibition at 200 µM stood at 100%.
`CCCCCCCCCCCC1=C(OC(=O)c2cccc(OC)c2)C(=O)C=C(OC(=O)c2cccc(OC)c2)C1=O` [Structure #17, 2,5-bis-(3-methoxyphenylcarbonyloxy)-3-undecyl-1,4-benzoquinone]: at Pancreatic Lipase, the IC50 amounted to 81.9 µM, the inhibition at 100 µM amounted to 78.3% and the inhibition at 200 µM was found to be 96.5%.
As for `CCCCCCCCCCCC1=C(OC(=O)c2ccc(OC)cc2)C(=O)C=C(OC(=O)c2ccc(OC)cc2)C1=O` [Structure #18, 2,5-bis-(4-methoxyphenylcarbonyloxy)-3-undecyl-1,4-benzoquinone], on Pancreatic Lipase, half-maximal inhibition (IC50) required 94.2 µM, the inhibition at 100 µM came out at 55.6% and the inhibition at 200 µM came out at 94.1%.
For `CCCCCCCCCCCC1=C(OC(=O)c2ccccc2I)C(=O)C=C(OC(=O)c2ccccc2I)C1=O` [Structure #19, 2,5-bis-(2-iodophenylcarbonyloxy)-3-undecyl-1,4-benzoquinone], in that order: 129 µM, 29.2% and 100%.
On to `CCCCCCCCCCCC1=C(O)C(=O)C=C(O)C1=O` [Structure #20, 2,5-Dihydroxy-3-undecyl-p-benzoquinone, reference compound], for which, at Pancreatic Lipase, at 100 µM the inhibition was 67.9% and 200 µM produced 69.5% inhibition.
